Assay results published in paper PMC9598282 (Antibiotics, 2022).

Columns and labels:
Assay in all cases: microbe, parasite or virus in culture
P. aeruginosa PAO1 = format: cell-based, Pseudomonas aeruginosa; settings: for MIC: Pseudomonas aeruginosa, PAO1, 18 h, read-out: MIC alone
Protocol: (§1) The adjuvant properties of the guanidinylated polymyxins were evaluated using the checkerboard assay as previously described. The bacterial solution was prepared as described in the antimicrobial susceptibility assay. The antibiotic of interest and the adjuvant were serially diluted two-fold along the x- and y-axis on a 96-well plate, respectively, resulting in varying concentrations of both agents in each well. Equal volumes of bacterial solution were added to the designated wells. The well consisting of bacterial solution served as the positive control, while the wells containing only media served as the negative control. The plate was then incubated at 37 °C for 18 h. After incubation, an Emax Plus microplate reader (Molecular Devices, Union City, CA, USA) was used to measure the OD at a wavelength of 590 nm to confirm the turbidity. The fractional inhibitory concentration (FIC) index was then determined to establish the relationship between the antibiotic and adjuvant. The FIC index corresponds to the sum of the FICs of the antibiotic and adjuvant. The FIC of each agent is calculated by dividing its MIC when it is used in combination by its MIC when used alone. FIC indices ≤0.5, 0.5 < x ≤ 4 and >4 indicate synergy, additivity and antagonism, respectively.

A. baumannii ATCC 17978 = format: cell-based, Acinetobacter baumannii; settings: for MIC: Acinetobacter baumannii, ATCC17978, 18 h, read-out: MIC alone; for MIC / MIC alone: agent alone, one value per checkerboard plate
Protocol: as §1

E. coli ATCC 25922 = format: cell-based, Escherichia coli; parameters: key to FIC index antibiotic + GCol / FIC index antibiotic + GPMB: sum of FICs; ≤0.5 synergy, 0.5–4 additivity, >4 antagonism; settings: for MIC: Escherichia coli, ATCC25922, 18 h, read-out: MIC alone; for MIC / MIC alone: agent alone, one value per checkerboard plate
Protocol: as §1

[1] = agent alone, one value per checkerboard plate

SMILES	Absolute MIC of antibiotic at 4 μg/mL GCol (P. aeruginosa PAO1) [µg/mL]	Absolute MIC of antibiotic at 4 μg/mL GPMB (P. aeruginosa PAO1) [µg/mL]	MIC (P. aeruginosa PAO1; [1]) [µg/mL]	Fold-potentiation of antibiotic (P. aeruginosa PAO1; at 4 μg/mL GCol)	Fold-potentiation of antibiotic (P. aeruginosa PAO1; at 4 μg/mL GPMB)	Absolute MIC of antibiotic at 2 μg/mL GCol (A. baumannii ATCC 17978) [µg/mL]	Absolute MIC of antibiotic at 2 μg/mL GPMB (A. baumannii ATCC 17978) [µg/mL]	FIC index antibiotic + GPMB (A. baumannii ATCC 17978)	MIC (A. baumannii ATCC 17978) [µg/mL]	Fold-potentiation of antibiotic (A. baumannii ATCC 17978; at 2 μg/mL GCol)	Fold-potentiation of antibiotic (A. baumannii ATCC 17978; at 2 μg/mL GPMB)	Absolute MIC of antibiotic at 2 μg/mL GCol (E. coli ATCC 25922) [µg/mL]	Absolute MIC of antibiotic at 2 μg/mL GPMB (E. coli ATCC 25922) [µg/mL]	FIC index antibiotic + GCol (E. coli ATCC 25922)	FIC index antibiotic + GPMB (E. coli ATCC 25922)	MIC (E. coli ATCC 25922) [µg/mL]	Fold-potentiation of antibiotic (E. coli ATCC 25922; at 2 μg/mL GCol)	Fold-potentiation of antibiotic (E. coli ATCC 25922; at 2 μg/mL GPMB)	MIC alone (A. baumannii ATCC 17978) [µg/mL]	other results
O=C(N[C@H](CO)[C@H](O)c1ccc([N+](=O)[O-])cc1)C(Cl)Cl [Chloramphenicol]	4	2	32	8	16	64	32	0.563	64	1	2	0.5	0.5	0.375	0.5	2	4	4		
CCC[C@@H]1C[C@@H](C(=O)N[C@@H]([C@H]2O[C@H](SC)[C@H](O)[C@@H](O)[C@H]2O)[C@H](C)Cl)N(C)C1 [Clindamycin]	8	8	1020	128	256	512	64	0.375	1020	2	16	4	8	0.125	0.313	64	16	16		FIC index antibiotic + GPMB (P. aeruginosa PAO1): 0.254; MIC alone (P. aeruginosa PAO1; [1]): 2048 µg/mL; MIC alone (E. coli ATCC 25922): 128 µg/mL
C[C@H]1c2cccc(O)c2C(=O)C2=C(O)[C@]3(O)C(=O)C(C(N)=O)=C(O)[C@@H](N(C)C)[C@@H]3[C@@H](O)[C@@H]21 [Doxycycline]	1	0.5	8			0.125	0.063		0.125										0.063	
C[C@H]1COc2c(N3CCN(C)CC3)c(F)cc3c(=O)c(C(=O)O)cn1c23 [Levofloxacin]	0.0625	0.03125	0.5	8	8	0.125	0.063	1	0.125	1	1	0.008	0.032	0.531	0.563		2	2	0.063	FIC index antibiotic + GPMB (P. aeruginosa PAO1): 0.375
CC(=O)NC[C@H]1CN(c2ccc(N3CCOCC3)c(F)c2)C(=O)O1 [Linezolid]	128	32	1020	8	32	128	64	0.375	256	2	4	16	8	0.25	0.25	128	8	16		
CN(C)c1ccc(O)c2c1C[C@H]1C[C@H]3[C@H](N(C)C)C(O)=C(C(N)=O)C(=O)[C@@]3(O)C(O)=C1C2=O [Minocycline]	0.5	0.5	16	32	32	0.125	0.063	0.5	0.125	1	4	0.25	0.125	0.281	0.25	1	4	8	0.25	
COc1c(N2C[C@@H]3CCCN[C@@H]3C2)c(F)cc2c(=O)c(C(=O)O)cn(C3CC3)c12 [Moxifloxacin]			1			0.063	0.063		0.063			0.008	0.004			0.016				
CO[C@@H]1[C@@H](OC(N)=O)[C@@H](O)[C@H](Oc2ccc3c(O)c(NC(=O)c4ccc(O)c(CC=C(C)C)c4)c(=O)oc3c2C)OC1(C)C [Novobiocin]	128	4	1020	8	256	0.5	0.063	0.07	8	16	256	0.125	0.25	0.02	0.012	128	1024	256		MIC alone (E. coli ATCC 25922): 64 µg/mL
CCN1CCN(C(=O)N[C@@H](C(=O)N[C@@H]2C(=O)N3[C@@H]2SC(C)(C)[C@@H]3C(=O)O)c2ccccc2)C(=O)C1=O [Piperacillin]	1	1	4	4	4	64	64	0.375	64	1	1	0.125	0.063	0.188	0.281	2	16	32		
